Measured values taken from patent US11566039B2, “Lincosamide antibiotics and uses thereof” (President and Fellows of Harvard College, priority 2017, dated 2023).
Converted amounts (≈) assume the structure as drawn. Like-named read-outs stand apart in the source and are kept apart here.

Columns and labels:
Format in all cases: cell-based
S. pyogenes ATCC 19615 = assay: MIC against S. pyogenes ATCC 19615
S. pneumoniae ATCC 49619 = assay: MIC against S. pneumoniae ATCC 49619
E. coli ATCC 25922 = assay: MIC against E. coli ATCC 25922
S. aureus ATCC 29213 = assay: MIC against S. aureus ATCC 29213
E. faecalis ATCC 29212 = assay: MIC against E. faecalis ATCC 29212
E. coli MP-9 ΔTolC = assay: MIC against E. coli MP-9 ΔTolC
H. influenzae ATCC 49247 = assay: MIC against H. influenzae ATCC 49247
K. pneumoniae ATCC 10031 = assay: MIC against K. pneumoniae ATCC 10031
[1] = system: E. coli MP-74 LptD mutant; assay: MIC against E. coli MP-74 LptD mutant
[2] = system: S. aureus MP-549 msr(a) USA 300; assay: MIC against S. aureus MP-549 msr(a) USA 300
[3] = Streptococcus pyogenes, ATCC19615, S. pyogenes ATCC 19615, read-out: MIC
[4] = Streptococcus pneumoniae, ATCC49619, S. pneumoniae ATCC 49619, read-out: MIC
[5] = Escherichia coli, ATCC25922, read-out: MIC
[6] = Staphylococcus aureus, ATCC29213, S. aureus ATCC 29213, read-out: MIC
[7] = Enterococcus faecalis, ATCC29212, E. faecalis ATCC 29212, read-out: MIC
[8] = S. aureus MP-549 msr(a) USA 300
[9] = Haemophilus influenzae, ATCC49247, H. influenzae ATCC 49247, read-out: MIC
[10] = Klebsiella pneumoniae, ATCC10031, read-out: MIC
[11] = Staphylococcus aureus, USA300, S. aureus MP-549 msr(a) USA 300

Row | SMILES | MIC (S. pyogenes ATCC 19615; [3]) | MIC (S. pneumoniae ATCC 49619; [4]) | MIC (E. coli ATCC 25922; [5]) | MIC (S. aureus ATCC 29213; [6]) | MIC (E. faecalis ATCC 29212; [7]) | MIC (E. coli MP-9 ΔTolC) | MIC (H. influenzae ATCC 49247; H. influenzae ATCC 49247) | MIC (S. pyogenes ATCC 19615; S. pyogenes ATCC 19615) | MIC (K. pneumoniae ATCC 10031) | MIC [1] | MIC (S. pneumoniae ATCC 49619; S. pneumoniae ATCC 49619) | MIC [2, 8] | MIC (E. coli ATCC 25922) | MIC (S. aureus ATCC 29213; S. aureus ATCC 29213) | MIC (E. faecalis ATCC 29212; E. faecalis ATCC 29212) | MIC (E. coli MP-9 ΔTolC; Escherichia coli) | MIC (H. influenzae ATCC 49247; [9]) | MIC (K. pneumoniae ATCC 10031; [10]) | MIC ([1]; Escherichia coli) | MIC [2, 11]
1 | CCC[C@@H]1C[C@@H](C(=O)N[C@H](CNC2CC2)[C@H]2OC(SC)[C@H](O)[C@H](O)C2O)N(C)C1 (some centres unmarked) [FSA-214082b] | > 64 µg/mL | > 64 µg/mL | > 64 µg/mL | > 64 µg/mL | > 64 µg/mL | – | – | – | – | – | – | – | – | – | – | – | – | – | – | –
2 | CCC[C@@H]1C[C@@H](C(=O)N[C@@H]([C@H]2OC(SC)[C@H](O)C(O)C2O)C(C)(C)C(C)N=[N+]=[N-])N(C)C1 (single isomer, unassigned) [FSA-217021b] | – | – | – | – | – | 32 µg/mL (≈ 67.6 µM) | 32 µg/mL (≈ 67.6 µM) | 0.12 µg/mL (≈ 0.253 µM) | >64 µg/mL | 8 µg/mL (≈ 16.9 µM) | 0.12 µg/mL (≈ 0.253 µM) | 0.25 µg/mL (≈ 0.528 µM) | >64 µg/mL | 0.25 µg/mL (≈ 0.528 µM) | 64 µg/mL (≈ 135 µM) | – | – | – | – | –
3 | CCC[C@@H]1C[C@@H](C(=O)N[C@H](Cn2cc(-c3ccnc(N)n3)nn2)[C@H]2OC(SC)[C@H](O)C(O)C2O)N(C)C1 (some centres unmarked) [FSA-215011] | > 64 µg/mL | 2 µg/mL (≈ 3.73 µM) | > 64 µg/mL | > 64 µg/mL | > 64 µg/mL | – | – | – | – | – | – | – | – | – | – | – | – | – | – | –
4 | CCC[C@@H]1C[C@@H](C(=O)N[C@H](CNCc2ccc(F)cc2)[C@H]2OC(SC)[C@H](O)C(O)C2O)N(C)C1 (some centres unmarked) [FSA-214084] | > 64 µg/mL | > 64 µg/mL | > 64 µg/mL | > 64 µg/mL | > 64 µg/mL | – | – | – | – | – | – | – | – | – | – | – | – | – | – | –
5 | CCC[C@@H]1C[C@@H](C(=O)N[C@H]([C@@H]2CCCC2N)[C@H]2OC(SC)[C@H](O)C(O)C2O)N(C)C1 (some centres unmarked) [FSA-217045a] | > 64 µg/mL | 64 µg/mL (≈ 144 µM) | > 64 µg/mL | > 64 µg/mL | > 64 µg/mL | – | – | – | – | – | – | – | – | – | – | > 64 µg/mL | > 64 µg/mL | > 64 µg/mL | > 64 µg/mL | > 64 µg/mL
6 | CCC[C@@H]1C[C@@H](C(=O)N[C@H](CN(C)c2ccc(-c3cccnc3)cc2)[C@H]2OC(SC)[C@H](O)C(O)C2O)N(C)C1 (some centres unmarked) [FSA-215009] | 32 µg/mL (≈ 57.3 µM) | 64 µg/mL (≈ 115 µM) | > 64 µg/mL | 64 µg/mL (≈ 115 µM) | > 64 µg/mL | – | – | – | – | – | – | – | – | – | – | – | – | – | – | –
7 | CCC[C@@H]1C[C@@H](C(=O)N[C@@H]([C@H]2OC(SC)[C@H](O)C(O)C2O)C(C)(C)C(C)N=[N+]=[N-])N(C)C1 (single isomer, unassigned) [FSA-217021a] | – | – | > 64 µg/mL | – | > 64 µg/mL | – | – | 2 µg/mL (≈ 4.22 µM) | – | >64 µg/mL | 2 µg/mL (≈ 4.22 µM) | 4 µg/mL (≈ 8.45 µM) | – | 4 µg/mL (≈ 8.45 µM) | – | > 64 µg/mL | > 64 µg/mL | > 64 µg/mL | – | –
8 | CCC[C@@H]1C[C@@H](C(=O)N[C@H]([C@@H]2CCC(O)C2O)[C@H]2OC(SC)[C@H](O)C(O)C2O)N(C)C1 (single isomer, unassigned) [FSA-217039a] | – | – | > 64 µg/mL | – | > 64 µg/mL | – | – | 8 µg/mL (≈ 17.3 µM) | – | – | 8 µg/mL (≈ 17.3 µM) | >64 µg/mL | – | >64 µg/mL | – | > 64 µg/mL | > 64 µg/mL | > 64 µg/mL | > 64 µg/mL | –
9 | CCC[C@@H]1C[C@@H](C(=O)N2CCC[C@@H]2[C@H]2OC(SC)[C@H](O)C(O)C2O)N(C)C1 (some centres unmarked) [FSA-216092] | > 64 µg/mL | > 64 µg/mL | > 64 µg/mL | > 64 µg/mL | > 64 µg/mL | – | – | – | – | – | – | – | – | – | – | > 64 µg/mL | > 64 µg/mL | > 64 µg/mL | > 64 µg/mL | > 64 µg/mL
10 | CCC[C@@H]1C[C@@H](C(=O)N[C@H](CNc2ccccc2)[C@H]2OC(SC)[C@H](O)C(O)C2O)N(C)C1 (some centres unmarked) [FSA-214088] | > 64 µg/mL | > 64 µg/mL | > 64 µg/mL | > 64 µg/mL | > 64 µg/mL | – | – | – | – | – | – | – | – | – | – | – | – | – | – | –
11 | CCC[C@@H]1C[C@@H](C(=O)N[C@H]([C@H]2C=CCC2)[C@H]2OC(SC)[C@H](O)C(O)C2O)N(C)C1 (some centres unmarked) [FSA-217003] | 0.5 µg/mL (≈ 1.17 µM) | 0.5 µg/mL (≈ 1.17 µM) | > 64 µg/mL | 1 µg/mL (≈ 2.33 µM) | 64 µg/mL (≈ 149 µM) | – | – | – | – | – | – | – | – | – | – | > 64 µg/mL | > 64 µg/mL | > 64 µg/mL | > 64 µg/mL | 1 µg/mL (≈ 2.33 µM)
12 | CCC[C@@H]1C[C@@H](C(=O)N[C@H](CNCC(F)(F)F)[C@H]2OC(SC)[C@H](O)C(O)C2O)N(C)C1 (some centres unmarked) [FSA-214099] | 32 µg/mL (≈ 67.6 µM) | 16 µg/mL (≈ 33.8 µM) | > 64 µg/mL | 64 µg/mL (≈ 135 µM) | > 64 µg/mL | – | – | – | – | – | – | – | – | – | – | – | – | – | – | –
13 | C#C[C@@H](NC(=O)[C@@H]1C[C@@H](CCC)CN1C)[C@H]1OC(SC)[C@H](O)C(O)C1O (some centres unmarked) [FSA-217031] | 8 µg/mL (≈ 20.7 µM) | 4 µg/mL (≈ 10.3 µM) | > 64 µg/mL | 64 µg/mL (≈ 166 µM) | 64 µg/mL (≈ 166 µM) | – | – | – | – | – | – | – | – | – | – | > 64 µg/mL | > 64 µg/mL | > 64 µg/mL | > 64 µg/mL | 32 µg/mL (≈ 82.8 µM)
14 | CCC[C@@H]1C[C@@H](C(=O)N[C@H]([C@@H]2CCCC2N)[C@H]2OC(SC)[C@H](O)C(O)C2O)N(C)C1 (some centres unmarked) [FSA-217045b] | – | – | – | – | – | >64 µg/mL | >64 µg/mL | >64 µg/mL | >64 µg/mL | >64 µg/mL | 32 µg/mL (≈ 71.8 µM) | >64 µg/mL | >64 µg/mL | >64 µg/mL | >64 µg/mL | – | – | – | – | –
15 | CCC[C@@H]1C[C@@H](C(=O)N[C@H](CO)[C@H]2OC(SC)[C@H](O)C(O)C2O)N(C)C1 (some centres unmarked) [FSA-214043, 8-norlincomycin] | 8 µg/mL (≈ 20.4 µM) | 4 µg/mL (≈ 10.2 µM) | > 64 µg/mL | 32 µg/mL (≈ 81.5 µM) | 64 µg/mL (≈ 163 µM) | – | – | – | – | – | – | – | – | – | – | – | – | – | – | –
16 | CCC[C@@H]1C[C@@H](C(=O)N[C@H](CNC23CC(C2)C3)[C@H]2OC(SC)[C@H](O)C(O)C2O)N(C)C1 (some centres unmarked) [FSA-2140836] | > 64 µg/mL | > 64 µg/mL | > 64 µg/mL | > 64 µg/mL | > 64 µg/mL | – | – | – | – | – | – | – | – | – | – | – | – | – | – | –
17 | CCC[C@@H]1C[C@@H](C(=O)N[C@H](CNc2ccc(-c3cncnc3)cc2)[C@H]2OC(SC)[C@H](O)C(O)C2O)N(C)C1 (some centres unmarked) [FSA-214080] | > 64 µg/mL | > 64 µg/mL | > 64 µg/mL | > 64 µg/mL | > 64 µg/mL | – | – | – | – | – | – | – | – | – | – | – | – | – | – | –
